Test results from patent US5407918A, “16-membered macrolide derivatives and process for producing the same” (Meiji Seika Kaisha, Ltd., priority 1992, dated 1995).
Values after ≈ are worked out from the molar mass of the structure shown.

Assays:
metabolism in plasma = type: in vitro ADME, rat; settings: no free hydroxyl group in the neutral sugar moiety formed
Experimental: Each test compound and 50 μl of a methanol solution (10,000 γ) were added to 950 μl of thawed rat plasma and the resulting mixture was incubated at 37° C. for 24 hours. After completion of the incubation, a 20 μl portion of the mixture was added to 980 μl of 0.05M phosphate buffer (pH 7.6). A 20 μl portion of the sample solution was used to measure antimicrobial activity against M. luteus. Separately, the calibration curve was prepared by using a methanol solution containing each test compound. The starting activity of each compound in the plasma was referred to as 100%.

[1] = tested on: Gram-positive bacteria and Mycoplasma; assay: antimicrobial activity in vitro (summary in words); type: cell-based; settings: from Table 1
Experimental: (§1) Antimicrobial activities of the compounds of the present invention were determined by measuring minimum inhibitory concentration (MIC). Minimum inhibitory concentration was determined by the agar plate dilution method in the following manner.
(§2) Test strains were subjected to seed culture using Sensitivity test broth (STB, Nissui Pharmaceutical) except that the strains belonging to the genus Streptococcus, Branhamella and Haemophilus were cultured on blood agar plate. A 5 μl portion of cell suspension of the test strains having about 10^6 CFU/ml was inoculated into Sensitivity disk agar (SDA, Nissui Pharmaceutical) supplemented with 5% horse blood and incubated at 37° C. for 20 hours. Then, MIC was measured. For comparison, MDM and leucomycin A7 (LM-A7) was also tested.

S. Pneumoniae Type 1 = assay: MIC, agar plate dilution method; type: cell-based; settings: Streptococcus pneumoniae, 20 h, read-out: Antimicrobial activity (MIC)
Experimental: as §1, §2

M. luteus ATCC9341 = assay: MIC, agar plate dilution method; type: cell-based; settings: Micrococcus luteus; M. luteus ATCC9341; 37° C., 20 hours; read-out: Antimicrobial activity (MIC)
Experimental: as §1, §2

S. pneumoniae IP692 = assay: MIC, agar plate dilution method; type: cell-based; settings: Streptococcus pneumoniae; S. pneumoniae IP692; 37° C., 20 hours; read-out: Antimicrobial activity (MIC)
Experimental: as §1, §2

S. epidermidis ATCC14990 = assay: MIC, agar plate dilution method; type: cell-based; settings: Staphylococcus epidermidis, 37° C., 20 hours, read-out: Antimicrobial activity (MIC)
Experimental: as §1, §2

S. aureus MS15026 = assay: MIC, agar plate dilution method; type: cell-based; settings: Staphylococcus aureus, 37° C., 20 hours, read-out: Antimicrobial activity (MIC)
Experimental: as §1, §2

S. Pyogenes Cook = assay: MIC, agar plate dilution method; type: cell-based; settings: Streptococcus pyogenes, 37° C., 20 hours, read-out: Antimicrobial activity (MIC)
Experimental: as §1, §2

M. pneumoniae Numata = assay: MIC, agar plate dilution method; type: cell-based; settings: Mycoplasmoides pneumoniae, 20 h, read-out: Antimicrobial activity (MIC)
Experimental: as §1, §2

H. influenzae 9334 = assay: MIC, agar plate dilution method; type: cell-based; settings: Haemophilus influenzae, 9334, 20 h, read-out: Antimicrobial activity (MIC)
Experimental: as §1, §2

S. aureus MS15009/pMS99 = assay: MIC, agar plate dilution method; type: cell-based; settings: Staphylococcus aureus, MS15009/PMS99, 20 h, read-out: Antimicrobial activity (MIC)
Experimental: as §1, §2

S. aureus M133 = assay: MIC, agar plate dilution method; type: cell-based; settings: Staphylococcus aureus, 37° C., 20 hours, read-out: Antimicrobial activity (MIC)
Experimental: as §1, §2

S. aureus 209P JC-1 = assay: MIC, agar plate dilution method; type: cell-based; settings: Staphylococcus aureus; S. aureus 209P JC-1; 37° C., 20 hours; read-out: Antimicrobial activity (MIC)
Experimental: as §1, §2

K. pneumoniae PC1602 = assay: MIC, agar plate dilution method; type: cell-based; settings: Klebsiella pneumoniae, 37° C., 20 hours, read-out: Antimicrobial activity (MIC)
Experimental: as §1, §2

S. aureus M126 = assay: MIC, agar plate dilution method; type: cell-based; settings: Staphylococcus aureus; S. aureus M126; 37° C., 20 hours; read-out: Antimicrobial activity (MIC)
Experimental: as §1, §2

E. coli NIHJ JC-2 = assay: MIC, agar plate dilution method; type: cell-based; settings: Escherichia coli, NIHJJC2, 20 h, read-out: Antimicrobial activity (MIC)
Experimental: as §1, §2

E. faecalis W-73 = assay: MIC, agar plate dilution method; type: cell-based; settings: Enterococcus faecalis, W73, 20 h, read-out: Antimicrobial activity (MIC)
Experimental: as §1, §2

M. pneumoniae FH-P24 = assay: MIC, agar plate dilution method; type: cell-based; settings: Mycoplasmoides pneumoniae, FHP24, 20 h, read-out: Antimicrobial activity (MIC)
Experimental: as §1, §2

M. pneumoniae Mac = assay: MIC, agar plate dilution method; type: cell-based; settings: Mycoplasmoides pneumoniae, 20 h, read-out: Antimicrobial activity (MIC)
Experimental: as §1, §2

S. aureus MS15009/pMS98 = assay: MIC, agar plate dilution method; type: cell-based; settings: Staphylococcus aureus, MS15009/PMS98, 20 h, read-out: Antimicrobial activity (MIC)
Experimental: as §1, §2

M. pneumoniae FH = assay: MIC, agar plate dilution method; type: cell-based; settings: Mycoplasmoides pneumoniae, 20 h, read-out: Antimicrobial activity (MIC)
Experimental: as §1, §2

B. catarrhalis W-0500 = assay: MIC, agar plate dilution method; type: cell-based; settings: Moraxella catarrhalis, W0500, 37° C., 20 hours, read-out: Antimicrobial activity (MIC)
Experimental: as §1, §2

B. catarrhalis W-0506 = assay: MIC, agar plate dilution method; type: cell-based; settings: Moraxella catarrhalis, W0506, 37° C., 20 hours, read-out: Antimicrobial activity (MIC)
Experimental: as §1, §2

S. aureus MS15027 = assay: MIC, agar plate dilution method; type: cell-based; settings: Staphylococcus aureus, 37° C., 20 hours, read-out: Antimicrobial activity (MIC)
Experimental: as §1, §2

SMILES: CCCCO[C@H]1[C@H](C)O[C@@H](O[C@H]2[C@H](N(C)C)[C@@H](O)[C@H](O[C@H]3[C@@H](CC=O)C[C@@H](C)[C@@H](O)/C=C/C=C/C[C@@H](C)OC(=O)C[C@@H](OC(=O)CC)[C@@H]3OC)O[C@@H]2C)C[C@@]1(C)OC [(2)]
- degree of loss of the antimicrobial activity in the plasma compared with MOM (M. luteus): lower than that of MOM
- duration of antimicrobial activity in rat plasma (M. luteus): extremely long-acting in rat plasma
- extent of metabolism (metabolism in plasma): hardly metabolized
- antimicrobial activities compared with MDM [1]: comparable to, or even exceeding, that of MDM
- antimicrobial activities on Gram-positive bacteria and Mycoplasma [1]: strong antimicrobial activities
- MIC (S. Pneumoniae Type 1): 0.2 µg/mL (≈ 0.242 µM)
- MIC (M. luteus ATCC9341): 0.05 µg/mL (≈ 0.0604 µM)
- MIC (S. pneumoniae IP692): 0.05 µg/mL (≈ 0.0604 µM)
- MIC (S. epidermidis ATCC14990): 1.56 µg/mL (≈ 1.88 µM)
- MIC (S. aureus MS15026): > 100 µg/mL
- MIC (S. Pyogenes Cook): 0.2 µg/mL (≈ 0.242 µM)
- MIC (M. pneumoniae Numata): 0.05 µg/mL (≈ 0.0604 µM)
- MIC (H. influenzae 9334): 6.25 µg/mL (≈ 7.55 µM)
- MIC (S. aureus MS15009/pMS99): > 100 µg/mL
- MIC (S. aureus M133): 0.78 µg/mL (≈ 0.942 µM)
- MIC (S. aureus 209P JC-1): 0.39 µg/mL (≈ 0.471 µM)
- MIC (K. pneumoniae PC1602): > 100 µg/mL
- MIC (S. aureus M126): > 100 µg/mL
- MIC (E. coli NIHJ JC-2): > 100 µg/mL
- MIC (E. faecalis W-73): 3.13 µg/mL (≈ 3.78 µM)
- MIC (M. pneumoniae FH-P24): 0.1 µg/mL (≈ 0.121 µM)
- MIC (M. pneumoniae Mac): 0.1 µg/mL (≈ 0.121 µM)
- MIC (S. aureus MS15009/pMS98): 0.39 µg/mL (≈ 0.471 µM)
- MIC (M. pneumoniae FH): 1.56 µg/mL (≈ 1.88 µM)
- MIC (B. catarrhalis W-0500): 1.56 µg/mL (≈ 1.88 µM)
- MIC (B. catarrhalis W-0506): 1.56 µg/mL (≈ 1.88 µM)
- MIC (S. aureus MS15027): 0.78 µg/mL (≈ 0.942 µM)
